Measured values as given in US11096928B2, “Pharmaceutical composition” (WUHAN LL SCIENCE AND TECHNOLOGY DEVELOPMENT CO., LTD., priority 2016, dated 2021).

How the values were obtained:
[1] = tested on: spontaneously hypertensive rats; test: Antihypertensive efficacy test of pharmaceutical compositions in spontaneously hypertensive rats; assay type: in vivo, rat; conditions: SHR, intragastric once a day, 28 days after administration
Description: After that, the blood pressure sensing catheter of hypertension implant was inserted into their abdominal aorta, while the implant was fixed to the abdominal wall, and then postoperative daily care was performed after suturing. […] A group of WKY rats (provided by Beijing Weitong Lihua Co., Ltd.) was set as a normal control group, which were administered intragastrically once a day at a volume calculated by 4 mL/kg for a total of 4 weeks. Each group were administered as follows: The normal control group were not administered; The blank control group were administered 0.5% CMC-Na; […] The valsartan group were administered valsartan dissolved in 0.5% CMC-Na, at a dose of 30 mg/kg; The Azilsartan kaMedoxoMil were administered Azilsartan kaMedoxoMil dissolved in 0.5% CMC-Na, at a dose of 1 mg (azilsartan effective dose)/kg; The AHU […] group were administered AHU 377 K, dissolved in 0.5% CMC-Na, at a dose of 30 mg/kg; The AHU377 ammonium salt group were administered AHU377 ammonium salt, dissolved in 0.5% CMC-Na, at a dose of 30 mg/kg; The LCZ696 group were administered LCZ696, dissolved in 0.5% CMC-Na, at a dose of 60 mg/kg; […]

[2] = tested on: chronic heart failure rats; test: Therapeutic effect of pharmaceutical composition on chronic heart failure rats (high-salt fed DSS rats); assay type: in vivo, rat; conditions: high-salt (8% sodium chloride) fed DSS rats, administration for 7 weeks, analysis at 18-weeks-age
Description: Five-week-old male DSS rats (purchased from Beijing Weitong Lihua Experimental Animal Technology Co., Ltd.) were randomly divided into 10 groups, among which, one group were fed with low salt as normal control group and the other 9 groups were fed with high salt. The low-salt feeding group were administered 0.3% sodium chloride, and high-salt feeding group were administered 8% sodium chloride to induce hypertension-cardiac hypertrophy-heart failure to form pathological model. […] The rats were killed at 18-weeks-age for analysis of blood pressure and atrial natriuretic peptide (ANP).

[3] = tested on: rats with heart failure by coronary artery ligation (CAL); test: Therapeutic effect of pharmaceutical compositions on acute heart failure caused by coronary artery ligation; assay type: in vivo, rat; conditions: Sprague-Dawley rats, after 4 weeks of continuous administration; for EF (left ventricular ejection fraction): cardiac ultrasound
From the text: Male Sprague-Dawley rats (purchased from Beijing Weitong Lihua Experimental Animal Technology Co., Ltd.) were used to perform heart failure model by coronary artery ligation (CAL). One week after surgery, the myocardial infarct size of the rats was examined by echocardiography. […] Operations on the normal control group were the same as above, except for the absence of arterial ligation. Rats with successful modeling were randomly divided into 9 groups, wherein each group has 10 rats. […] Cardiac function was detected by cardiac ultrasound after 4 weeks of continuous administration, and changes of mean arterial pressure (MAP) and left ventricular ejection fraction (EF) were analyzed.

[4] = tested on: spontaneously hypertensive rats; test: Antihypertensive efficacy test of the compound 1K in spontaneously hypertensive rats; assay type: in vivo, rat; conditions: SHR, intragastric, 1 mg/kg; for Heart rates change, 1 hour after administration / Systolic blood pressure change, 1 hour after administration / Heart rates change, 3 hours after administration / Systolic blood pressure change, 3 hours after administration / Heart rates change, 5 hours after administration / Systolic blood pressure change, 5 hours after administration / Heart rates change, 7 hours after administration / Systolic blood pressure change, 7 hours after administration / Heart rates change, 10 hours after administration / Systolic blood pressure change, 10 hours after administration / Heart rates change, 24 hours after administration / Systolic blood pressure change, 24 hours after administration / Heart rates change, before administration / Systolic blood pressure change, before administration: average ± standard error; for Heart rates change, before administration / Systolic blood pressure change, before administration: before administration (reference value)
Description: 12-week-old spontaneously hypertensive rats (hereinafter referred to as SHR, purchased from Beijing Weitong Lihua Experimental Animal Technology Co., Ltd.) were anesthetized with 2.5% sodium pentobarbital for intraperitoneal injection. After that, the blood pressure sensing catheter of hypertension implant was inserted into their abdominal aorta, while the implant was fixed to the abdominal wall, and then postoperative daily care was performed after suturing. Rats with systolic blood pressure exceeding 160 mm Hg were divided into 3 groups (control group, compound 1 group and compound 1K group), wherein each group has 8 rats. The control group was administrated 0.5% sodium carboxymethyl cellulose (hereinafter referred to as CMC-Na); the compound 1 group and the compound 1K group were respectively administered the compound 1 and the compound 1K, both of which were dissolved by 0.5% CMC-Na, by intragastric administration, at a dose of 1 mg/kg (calculated by the effective dose of valsartan) and a volume calculated by 4 mL/kg. The systolic blood pressure and heart rate of SHR were compared before and after administration (the systolic blood pressure and heart rate of SHR before administration as reference value), which were detected three times at each time point with the average value recorded.

Row | SMILES | heart rate change [1] [times/minute] | systolic pressure change [1] [mmHg] | ANP rate of change [2] | systolic pressure change [2] | MAP (mean arterial pressure) [3] | EF (left ventricular ejection fraction) [3] | Heart rates change, 1 hour after administration [4] [times/minute] | Systolic blood pressure change, 1 hour after administration [4] [mmHg] | Heart rates change, 3 hours after administration [4] [times/minute] | Systolic blood pressure change, 3 hours after administration [4] [mmHg] | Heart rates change, 5 hours after administration [4] [times/minute] | Systolic blood pressure change, 5 hours after administration [4] [mmHg] | Heart rates change, 7 hours after administration [4] [times/minute] | Systolic blood pressure change, 7 hours after administration [4] [mmHg] | Heart rates change, 10 hours after administration [4] [times/minute] | Systolic blood pressure change, 10 hours after administration [4] [mmHg] | Heart rates change, 24 hours after administration [4] [times/minute] | Systolic blood pressure change, 24 hours after administration [4] [mmHg] | Heart rates change, before administration [4] [times/minute] | Systolic blood pressure change, before administration [4] [mmHg] | other results
1 | CCOC(=O)[C@H](C)C[C@@H](Cc1ccc(-c2ccccc2)cc1)NC(=O)CCC(=O)O.N [AHU377 ammonium salt, Ammonium 4-(((2S,4R)-1-([1,1′-biphenyl]-4-yl)-5-ethoxy-4-methyl-5-oxopentane-2-yl)amino)-4-oxobutanoate] | 3 ± 2.1 | −18.5 ± 2.5 | 135.3p % | −18.3p am mmHg | 172oup mmHg |  |  |  |  |  |  |  |  |  |  |  |  |  |  |  | 
2 | CCOC(=O)[C@H](C)C[C@@H](Cc1ccc(-c2ccccc2)cc1)NC(=O)CCC(=O)[O-].[K+] [AHU 377K, potassium 4-(((2S,4R)-1-([1,1′-biphenyl]-4-yl)-5-ethoxy-4-methyl-5-oxopentan-2-yl)amino)-4-oxobutanoate] | −8.1 ± 2.8 | −15.6 ± 2.5 | 143.6p % | −20.6p7Km mmHg | 170.6p7K mmHg | 37.46p7K % |  |  |  |  |  |  |  |  |  |  |  |  |  |  | 
3 | CCOc1nc2cccc(C(=O)OCc3oc(=O)oc3C)c2n1Cc1ccc(-c2ccccc2-c2noc(=O)[n-]2)cc1.[K+] [Azilsartan kaMedoxoMil] | −11.1 ± 3.7 | −33.5 ± 3.2 | 132.3s^ % | −36.3sium mmHg | 150.4sium^ mmHg | 45.14siu % |  |  |  |  |  |  |  |  |  |  |  |  |  |  | 
4 | CCOc1nc2cccc(C(=O)OC(C)OC(=O)OCc3nc(C)c(C)nc3C)c2n1Cc1ccc(-c2ccccc2-c2noc(=O)[n-]2)cc1.[K+] (centres unmarked) [Compound 1K] | −29.3 ± 4.1 | −50.4 ± 4.7 | 158 ± 7% | −48.5 ± 7.5 mmHg | 145.5 ± 8.9 mmHg | 48.6 ± 5.3% | −3.6 ± 2.4 | −7.0 ± 3.4 | −5.0 ± 2.5 | −34.3 ± 1.9 | −10.1 ± 3.0 | −46.5 ± 2.5 | −17.5 ± 3.0 | −49.4 ± 4.1 | −25.4 ± 2.4 | −45.3 ± 3.3 | −28.6 ± 8 | −25.9 ± 3.4 | 0.0 ± 0.0 | 0.0 ± 0.0 | antihypertensive effect compared with the compound 1 group ([4]; result in words): more potent with longer-lasting antihypertensive effect; effect of lowering heart rate compared with the compound 1 group ([4]; result in words): more potent with longer-lasting effect of lowering heart rate
5 | CCOc1nc2cccc(C(=O)OC(C)OC(=O)OCc3nc(C)c(C)nc3C)c2n1Cc1ccc(-c2ccccc2-c2noc(=O)[nH]2)cc1 (centres unmarked) [Compound 1] |  |  |  |  |  |  | −3.4 ± 2.6 | −4.9 ± 4.8 | −2.33 ± 2.6 | −22.0 ± 3.6 | −6.5 ± 2.8 | −30.5 ± 3.5 | −6.2 ± 3.0 | −38.8 ± 2.3 | −12.3 ± 2.8 | −33.0 ± 1.7 | −6.7 ± 2.6 | −10.2 ± 2.1 | 0.0 ± 0.0 | 0.0 ± 0.0 | melting point: 135 to 145 °C
6 | CCCCC(=O)N(Cc1ccc(-c2ccccc2-c2nnn[nH]2)cc1)[C@H](C(=O)O)C(C)C [valsartan] | −10.6 ± 3.2 | −30.6 ± 3.5 | 125 ± 52% | −32.4 ± 4.6 mmHg |  | 35.3arta^ % |  |  |  |  |  |  |  |  |  |  |  |  |  |  | 
